{"source": "patent US9827189B2", "about": "“Stable parenteral DNJ compositions” (AMICUS THERAPEUTICS, INC., priority 2013, dated 2017)", "test": "Stability and integrity of 1-DNJ-HCl in buffer solutions at 60° C. by NP-HPLC (UV and CAD) and discoloration", "format": "physicochemical", "procedure": "1-DNJ-HCl was dissolved in sodium phosphate buffer. 1-DNJ-HCl concentration was 60 mg/mL; sodium phosphate buffer concentration was 100 mM at pH 4.89. The formulation was stored at 60° C. for 4 days. 1-DNJ-HCl solution in water was used as a control. Reaction rate for small molecules such as 1-DNJ-HCl generally follows Arrhenius equation where reaction rate nearly doubles for every 10° C. increase in the temperature. Thus, under this model, the reaction rate at 60° C. would be 2^5 or 32 times the reaction rate at 10° C. Therefore during 4 days at 60° C. 1-DNJ-HCl would degrade by approximately the same percentage as during 128 days (4*32) at 10° C. The stability of 1-DNJ-HCl was measured by normal phase high performance liquid chromatography (NP-HPLC). 1-DNJ-HCl was recorded by UV chromatograms and by Charged Aerosol Detector (CAD) chromatograms. Mobile phase consisted of ACN/30 mM Ammonium Acetate (90/10, v/v). The flow rate was 1.0 ml/min with 5 μl injection at 400° C. UV absorbance was measured at 220 nm CAD detector settings were 35.0 psi, Gain: 100 pA. 1-DNJ-HCl was dissolved in sodium acetate buffer. The 1-DNJ-HCl concentration was 60 mg/mL; sodium acetate buffer concentration was 50 mM at pH 5.5. The formulation was stored at 60° C. for 4 days. 1-DNJ-HCl solution in water was used as control. Reaction rate for small molecules such as 1-DNJ-HCl generally follows the Arrhenius equation, in which the reaction rate nearly doubles for every 10°K increase in the temperature. Thus the reaction rate, under this model, at 60° C. would be 2^5 or 32 times the reaction rate at 10° C. Therefore during 4 days at 60° C. 1-DNJ-HCl would degrade by approximately same percentage as during 128 days at 10° C. The stability of 1-DNJ-HCl was measured by NP-HPLC. Presence of 1-DNJ-HCl was recorded by UV absorbance detector and by Charged Aerosol Detector. Mobile phase consisted of ACN/30 mM Ammonium Acetate (90/10, v/v). The flow rate was 1.0 ml/min with 5 μl injection at 400 C. UV absorbance was measured at 220 nm. CAD detector settings were 35.0 psi, Gain: 100 pA. 1-DNJ-HCl was dissolved in sodium citrate buffer that further includes EDTA. 1-DNJ-HCl concentration was 60 mg/mL; sodium citrate buffer concentration was 50 mM at pH 4.6. The EDTA concentration was 0.05% w/v. Some samples were stored under the nitrogen atmosphere (essentially 100% nitrogen) while others were stored under air. The formulation was stored at 60° C. for 8 days. Stability of 1-DNJ-HCl was measured by NP-HPLC. Presence of 1-DNJ-HCl was recorded by UV absorbance detector and by Charged Aerosol Detector. Mobile phase consisted of ACN/30 mM Ammonium Acetate (90/10, v/v). The flow rate was 1.0 ml/min with 5 μl injection at 400 C. UV absorbance was measured at 220 nm. CAD detector settings were 35.0 psi, Gain: 100 pA. 1-DNJ-HCl was dissolved in sodium citrate buffer. 1-DNJ-HCl concentration was 60 mg/mL; sodium citrate buffer concentration was 50 mM at pH 4.7. The formulation was stored at 60° C. for 8 days. 1-DNJ-HCl solution in water was used as control. Stability of 1-DNJ-HCl was measured by NP-HPLC. Presence of 1-DNJ-HCl was recorded by UV absorbance detector and by Charged Aerosol Detector. Mobile phase consisted of ACN/30 mM Ammonium Acetate (90/10, v/v). The flow rate was 1.0 ml/min with 5 μl injection at 400 C. UV absorbance was measured at 220 nm. CAD detector settings were 35.0 psi, Gain: 100 pA. 1-DNJ-HCl was dissolved in sodium citrate buffer. 1-DNJ-HCl concentration was 60 mg/mL; sodium citrate buffer concentration was 50 mM at pH 5.0. The formulation was stored at 60° C. for 17 days. The samples were stored under the nitrogen atmosphere (essentially 100% nitrogen). 1-DNJ-HCl solution in water was used as control. Reaction rate for small molecules such as 1-DNJ-HCl generally follows Arrhenius equation where reaction rate nearly doubles for every 10°K increase in the temperature. Thus reaction rate at 60° C. would be 2^5 or 32 times the reaction rate at 10° C. Therefore during 17 days at 60° C. […]", "key": {"[1]": {"details": "60 mg/mL in 50 mM sodium acetate buffer pH 5.5, 60° C., 4 days, hydrochloride"}, "[2]": {"details": "60 mg/mL in 50 mM sodium citrate buffer pH 4.6, EDTA 0.05% w/v, nitrogen atmosphere, 60° C., 8 days"}, "[3]": {"details": "60 mg/mL in 50 mM sodium citrate buffer pH 4.6, EDTA 0.05% w/v, stored under air, 60° C., 8 days"}, "[4]": {"details": "60 mg/mL in 100 mM sodium phosphate buffer pH 4.89, 60° C., 4 days"}, "[5]": {"details": "60 mg/mL in 100 mM sodium phosphate buffer pH 4.89, 60° C., 4 days, hydrochloride"}, "[6]": {"details": "control 1-DNJ-HCl aqueous solution, 60° C., 4 days"}, "[7]": {"details": "control 1-DNJ-HCl aqueous solution, 60° C., 8 days"}, "[8]": {"details": "control 1-DNJ-HCl aqueous solution, 60° C., 17 days"}, "[9]": {"details": "sodium citrate buffer, summary of the Examples"}}, "note": "Entries after “also recorded” stand apart in the source; their conditions may differ. Counter-ions that a name gives are not always drawn."}
{"smiles": "OC[C@H]1NC[C@H](O)[C@@H](O)[C@@H]1O", "note": "[1-DNJ-HCl, 1-deoxynojirimycin hydrochloride]", "values": [{"measurement": "Presence of 1-DNJ-HCl (NP-HPLC)", "setting": "60 mg/mL in 50 mM sodium acetate buffer pH 5.5, 60° C., 4 days", "value": "still present"}, {"measurement": "Discoloration", "setting": "[1]", "value": "discoloration of the acetate buffer solution was observed; also recorded: resulted in discoloration"}, {"measurement": "New compounds (UV and CAD chromatograms)", "setting": "[1]", "value": "detected presence of new compounds; also recorded: presence of additional compounds"}, {"measurement": "Presence of 1-DNJ-HCl (NP-HPLC)", "setting": "60 mg/mL in 50 mM sodium citrate buffer pH 4.6, EDTA 0.05% w/v, 60° C., 8 days", "value": "still present"}, {"measurement": "Discoloration", "setting": "[2]", "value": "remained clear with no visible discoloration"}, {"measurement": "New compounds (UV and CAD chromatograms)", "setting": "[2]", "value": "No new compounds were detected"}, {"measurement": "Discoloration", "setting": "[3]", "value": "slight discoloration"}, {"measurement": "New compounds (UV and CAD chromatograms)", "setting": "[3]", "value": "showed presence of new compounds"}, {"measurement": "Presence of 1-DNJ-HCl (NP-HPLC)", "setting": "60 mg/mL in 50 mM sodium citrate buffer pH 4.7, 60° C., 8 days", "value": "still present"}, {"measurement": "Presence of 1-DNJ-HCl (NP-HPLC)", "setting": "60 mg/mL in 50 mM sodium citrate buffer pH 5.0, nitrogen atmosphere, 60° C., 17 days", "value": "still present"}, {"measurement": "Presence of 1-DNJ-HCl (NP-HPLC)", "setting": "[4]", "value": "still present"}, {"measurement": "Stability", "setting": "[4]", "value": "not stable"}, {"measurement": "Discoloration", "setting": "[5]", "value": "discoloration of the phosphate buffer solution was observed; also recorded: resulted in discoloration"}, {"measurement": "New compounds (UV and CAD chromatograms)", "setting": "[5]", "value": "detected presence of new compounds; also recorded: presence of additional compounds"}, {"measurement": "Appearance of solution", "setting": "[6]", "value": "remainded clear"}, {"measurement": "New compounds (UV and CAD chromatograms)", "setting": "[6]", "value": "No new compounds were detected"}, {"measurement": "Discoloration", "setting": "[7]", "value": "No discoloration was observed"}, {"measurement": "New compounds (UV and CAD chromatograms)", "setting": "[7]", "value": "No new compounds were detected"}, {"measurement": "Discoloration", "setting": "[8]", "value": "No discoloration was observed"}, {"measurement": "New compounds (UV and CAD chromatograms)", "setting": "[8]", "value": "No new compounds were detected"}, {"measurement": "Relative stability among buffers", "setting": "sodium citrate buffer compared with sodium phosphate and sodium acetate buffers", "value": "most stable"}, {"measurement": "Additional compounds (HPLC)", "setting": "[9]", "value": "little to no presence of additional compounds"}, {"measurement": "Discoloration", "setting": "[9]", "value": "little to no discoloration"}]}
